From ChEMBL document CHEMBL5518179, “Resveratrol-derived inhibitors of the E3 ubiquitin ligase PELI1 inhibit the metastasis of triple-negative breast cancer” (Eur J Med Chem, 2024)
pKd: −log10 of the molar value.

target: T1, E3 ubiquitin-protein ligase pellino homolog 1 (Homo sapiens, UniProt Q96FA3); assay: Binding affinity to PELI1 FHA domain (unknown origin) expressed in Escherichia coli BL21(DE3) competent cell measured after 1 min by fluorescence quenching assay; conditions: not given
T1 sequence (Q96FA3 whole entry): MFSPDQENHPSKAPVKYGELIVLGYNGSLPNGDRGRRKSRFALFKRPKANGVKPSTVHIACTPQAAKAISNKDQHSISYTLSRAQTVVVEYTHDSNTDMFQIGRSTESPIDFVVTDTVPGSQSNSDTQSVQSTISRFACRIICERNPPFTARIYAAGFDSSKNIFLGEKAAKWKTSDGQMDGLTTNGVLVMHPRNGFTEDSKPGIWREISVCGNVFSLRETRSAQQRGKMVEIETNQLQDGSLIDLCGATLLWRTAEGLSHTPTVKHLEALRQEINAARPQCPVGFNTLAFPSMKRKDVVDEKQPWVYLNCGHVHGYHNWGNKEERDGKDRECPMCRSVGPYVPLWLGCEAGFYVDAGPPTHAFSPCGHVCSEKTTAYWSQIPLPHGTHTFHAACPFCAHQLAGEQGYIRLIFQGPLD

Compound	Kd
CNC(=O)/C=C/c1ccc(/C=C/c2cc(O)cc(O)c2)cc1	Not Active
Oc1cc(O)cc(/C=C/c2ccc(-c3ccsc3)cc2)c1	Not Active
Oc1ccc(-c2ccc(/C=C/c3cc(O)cc(O)c3)cc2)cc1	Not Active
O=[N+]([O-])c1cccc(-c2ccc(/C=C/c3cc(O)cc(O)c3)cc2)c1	Not Active
O=C(/C=C/c1ccc(/C=C/c2cc(O)cc(O)c2)cc1)N1CCCCC1	Not Active
O=C(/C=C/c1ccccc1)Nc1ccc(O)c(/C=C/c2cc(O)cc(O)c2)c1	Not Active
O=C(/C=C/c1ccccc1)Nc1ccc(/C=C/c2cc(O)cc(O)c2)cc1	Not Active
C/C=C/C(=O)Nc1ccc(/C=C/c2cc(O)cc(O)c2)cc1	Not Active
CN(C)C(=O)/C=C/c1ccc(/C=C/c2cc(O)cc(O)c2)cc1	Not Active
CCCNC(=O)/C=C/c1ccc(/C=C/c2cc(O)cc(O)c2)cc1	Not Active
NC(=O)/C=C/c1ccc(/C=C/c2cc(O)cc(O)c2)cc1	Not Active
Oc1cc(O)cc(/C=C/c2ccc(-c3ccoc3)cc2)c1	Not Active
Oc1cc(O)cc(/C=C/c2ccc(-c3ccccc3)cc2)c1	Not Active
Oc1cc(O)cc(/C=C/c2ccc(-c3cccc(O)c3)cc2)c1	Not Active

same assay, conditions: read-out: Kd

Compound	pKd
CNC(=O)/C=C/c1ccccc1	3.67
CNC(=O)/C=C/c1ccc(O)c(/C=C/c2cc(O)cc(O)c2)c1	4.22
NC(=O)/C=C/c1ccc(O)c(/C=C/c2cc(O)cc(O)c2)c1	4.25
O=C(/C=C/c1cc(/C=C/c2cc(O)cc(O)c2)ccc1O)N1CCCCC1	4.42
CNC(=O)/C=C/c1cc(/C=C/c2cc(O)cc(O)c2)ccc1O	4.37
O=C(/C=C/c1ccccc1)Nc1cc(/C=C/c2cc(O)cc(O)c2)ccc1O	3.91
C/C=C/C(=O)Nc1cc(/C=C/c2cc(O)cc(O)c2)ccc1O	3.90
O=C(/C=C/c1ccc(O)c(/C=C/c2cc(O)cc(O)c2)c1)N1CCCCC1	4.57
CCCNC(=O)/C=C/c1cc(/C=C/c2cc(O)cc(O)c2)ccc1O	4.35
C/C=C/C(=O)Nc1ccc(O)c(/C=C/c2cc(O)cc(O)c2)c1	4.19
O=C(/C=C/c1ccccc1)Nc1cc(O)ccc1/C=C/c1cc(O)cc(O)c1	4.29
C/C=C/C(=O)Nc1cc(O)ccc1/C=C/c1cc(O)cc(O)c1	4.06
CN(C)C(=O)/C=C/c1cc(O)ccc1/C=C/c1cc(O)cc(O)c1	3.98
NC(=O)/C=C/c1cc(O)ccc1/C=C/c1cc(O)cc(O)c1	4.40
O=C(/C=C/c1cc(O)ccc1/C=C/c1cc(O)cc(O)c1)N1CCCCC1	4.02
CNC(=O)/C=C/c1cc(O)ccc1/C=C/c1cc(O)cc(O)c1	4.41
CCCNC(=O)/C=C/c1cc(O)ccc1/C=C/c1cc(O)cc(O)c1	4.15
O=c1ccc2ccc(O)c(O)c2o1 [DAPHNETIN]	3.47
O=C(Nc1ccccc1)c1cccnc1 [NICOTINANILIDE]	3.47
Oc1ccc(/C=C/c2cc(O)cc(O)c2)cc1 [RESVERATROL]	3.90
COc1cc(C=O)ccc1O [VANILLIN]	3.64
